Read-outs that look alike come from different tables or passages of the source.
Experiment: Phase 1 Stage 1 clinical pharmacokinetics of SC ZA co-administered with rHuPH20
Type: in vivo, human
Conditions: human, serum, sc, serum; for concentration at 6 h: 6 h post infusion; for concentration at 8 h: 8 h post infusion; for concentration at 12 h: 12 h post infusion; for concentration at 0 h: 0 h post infusion; for concentration at 10 min: 10 min post infusion; for concentration at 0.5 h: 0.5 h post infusion; for concentration at 1 h: 1 h post infusion; for concentration at 2 h: 2 h post infusion; for concentration at 4 h: 4 h post infusion; for concentration at 24 h: 24 h post infusion; for concentration at 48 h: 48 h post infusion
Procedure: A pharmacokinetic study of zoledronic acid (ZA) co-administered with rHuPH20 in human subjects was conducted. The primary objective of the study was to determine the bioavailability of zoledronic acid dosed via subcutaneous (SC) co-administration with human recombinant hyaluronidase PH20 (rHuPH20). […] The patients were administered the prescribed dosage formulations as follows: Cohorts 1-5 were administered a single subcutaneous infusion in a dosage volume of 100 ml at a rate of 3 mL/min. […] The dosing solution is administered via needle or catheter into the SC space of the left anterior thigh (midway between the anterior iliac crest and the cephalad border of the patella). For cohorts 1-5, the dosing solutions were administered by a controlled rate infusion pump at approximately 3 mL/minute. […] The dosing solutions were administered by syringe push bolus injection. […] Serum concentration of ZA was determined using a qualified LC-MS-MS assay after derivatization with diazomethane (Zhu, L S et al. (2006) Rapid Commun. […] The assay range was from 2.0 to 400 ng/mL with a lower limit of quantitation (LLOQ) at 2.0 ng/mL. […] Non-compartmental analysis was used for derivation of primary and secondary pharmacokinetic (PK) parameters. […] Summary statistics (mean, standard deviation, and median) were calculated using JMP or Microsoft Excel.

[1] = ZA 0.5 mg SC infusion + 24000 Units rHuPH20, n=3, read-out: Median Conc.
[2] = ZA 0.5 mg SC infusion + 24000 Units rHuPH20, individual subjects, read-out: Zoledronic Acid Concentration
[3] = ZA 0.5 mg SC infusion + 24000 Units rHuPH20, n=3, read-out: Mean Conc.
[4] = ZA 1 mg SC infusion + 24000 Units rHuPH20, individual subjects, read-out: Zoledronic Acid Concentration
[5] = ZA 1 mg SC infusion + 24000 Units rHuPH20, n=3, read-out: Mean Conc.
[6] = ZA 1 mg SC infusion + 24000 Units rHuPH20, n=3, read-out: Median Conc.
[7] = ZA 2 mg SC infusion + 24000 Units rHuPH20, individual subjects, read-out: Zoledronic Acid Concentration
[8] = ZA 2 mg SC infusion + 24000 Units rHuPH20, n=3, read-out: Mean Conc.
[9] = ZA 2 mg SC infusion + 24000 Units rHuPH20, n=3, read-out: Median Conc.
[10] = ZA 5 mg SC infusion + 24000 Units rHuPH20, n=3, read-out: Mean Conc.
[11] = ZA 5 mg SC infusion + 24000 Units rHuPH20, n=3, read-out: Median Conc.
[12] = ZA 5 mg SC infusion + 24000 Units rHuPH20, individual subjects, read-out: Zoledronic Acid Concentration

O=P(O)(O)C(O)(Cn1ccnc1)P(=O)(O)O [ZA, 1-hydroxy-2-(1H-imidazol-1-yl)ethylidene-1,1-bisphosphonic acid]
concentration at 6 h [1]: 2.53 ng/mL | concentration at 8 h [2]: 1.19 ng/mL | concentration at 8 h [3]: 1.32 ng/mL | concentration at 8 h [1]: 1.34 ng/mL | concentration at 12 h [2]: 0.52 ng/mL | concentration at 12 h [3]: 0.54 ng/mL | concentration at 12 h [1]: 0.55 ng/mL | concentration at 0 h [4]: 28.4 ng/mL | concentration at 0 h [5]: 20.5 ng/mL | concentration at 0 h [6]: 17.9 ng/mL | concentration at 10 min [4]: 32.1 ng/mL | concentration at 10 min [5]: 27.2 ng/mL | concentration at 10 min [6]: 25 ng/mL | concentration at 0.5 h [4]: 33.4 ng/mL | concentration at 0.5 h [5]: 28.1 ng/mL | concentration at 0.5 h [6]: 28 ng/mL | concentration at 1 h [4]: 29.9 ng/mL | concentration at 1 h [5]: 25.5 ng/mL | concentration at 1 h [6]: 27.2 ng/mL | concentration at 2 h [4]: 24 ng/mL | concentration at 2 h [5]: 19.6 ng/mL | concentration at 2 h [6]: 17.7 ng/mL | concentration at 4 h [4]: 13.3 ng/mL | concentration at 4 h [5]: 10.3 ng/mL | concentration at 4 h [6]: 10.2 ng/mL | concentration at 6 h [4]: 5.48 ng/mL | concentration at 6 h [5]: 4.9 ng/mL | concentration at 6 h [6]: 5.47 ng/mL | concentration at 8 h [4]: 2.44 ng/mL | concentration at 8 h [5]: 2.69 ng/mL | concentration at 8 h [6]: 2.46 ng/mL | concentration at 12 h [4]: 1.02 ng/mL | concentration at 12 h [5]: 1.09 ng/mL | concentration at 12 h [6]: 1.02 ng/mL | concentration at 24 h [4]: 0.56 ng/mL | concentration at 24 h [5]: 0.52 ng/mL | concentration at 24 h [6]: 0.51 ng/mL | concentration at 0 h [7]: 33.3 ng/mL | concentration at 0 h [8]: 37.9 ng/mL | concentration at 0 h [9]: 39.6 ng/mL | concentration at 10 min [7]: 52.5 ng/mL | concentration at 10 min [8]: 48.3 ng/mL | concentration at 10 min [9]: 46.3 ng/mL | concentration at 0.5 h [7]: 59.8 ng/mL | concentration at 0.5 h [8]: 51.9 ng/mL | concentration at 0.5 h [9]: 48.6 ng/mL | concentration at 1 h [7]: 57.7 ng/mL | concentration at 1 h [8]: 56.5 ng/mL | concentration at 1 h [9]: 57.7 ng/mL | concentration at 2 h [7]: 42.5 ng/mL | concentration at 2 h [8]: 41.6 ng/mL | concentration at 2 h [9]: 42.2 ng/mL | concentration at 4 h [7]: 17.5 ng/mL | concentration at 4 h [8]: 20.3 ng/mL | concentration at 4 h [9]: 20.3 ng/mL | concentration at 6 h [7]: 6.43 ng/mL | concentration at 6 h [8]: 7.69 ng/mL | concentration at 6 h [9]: 7.71 ng/mL | concentration at 8 h [7]: 3.15 ng/mL | concentration at 8 h [8]: 3.77 ng/mL | concentration at 8 h [9]: 3.34 ng/mL | concentration at 12 h [7]: 1.5 ng/mL | concentration at 12 h [8]: 1.74 ng/mL | concentration at 12 h [9]: 1.64 ng/mL | concentration at 24 h [7]: 0.78 ng/mL | concentration at 24 h [8]: 0.87 ng/mL | concentration at 24 h [9]: 0.85 ng/mL | concentration at 48 h [7]: 0.62 ng/mL | concentration at 48 h [8]: 0.21 ng/mL | concentration at 0 h [10]: 88.6 ng/mL | concentration at 0 h [11]: 82.3 ng/mL | concentration at 10 min [12]: 121 ng/mL | concentration at 10 min [10]: 110 ng/mL | concentration at 10 min [11]: 121 ng/mL | concentration at 0.5 h [12]: 130 ng/mL | concentration at 0.5 h [10]: 125 ng/mL | concentration at 0.5 h [11]: 130 ng/mL | concentration at 1 h [12]: 124 ng/mL | concentration at 1 h [10]: 118 ng/mL | concentration at 1 h [11]: 116 ng/mL | concentration at 2 h [12]: 83.5 ng/mL | concentration at 2 h [10]: 86.6 ng/mL | concentration at 2 h [11]: 86.5 ng/mL | concentration at 4 h [12]: 45.6 ng/mL | concentration at 4 h [10]: 50 ng/mL | concentration at 4 h [11]: 45.6 ng/mL | concentration at 6 h [12]: 20.3 ng/mL | concentration at 6 h [10]: 23.5 ng/mL
